Assay results reported in BigSolDB 2.1.

SMILES | solubility (mole fraction) (in n-octanol, 293.15 K) | solubility (mole fraction) (in n-octanol, 298.15 K) | solubility (mole fraction) (in n-octanol, 303.15 K) | solubility (mole fraction) (in n-octanol, 310.15 K) | solubility (mole fraction) (in n-octanol, 315.15 K) | solubility (mole fraction) (in water, 293.15 K) | solubility (mole fraction) (in water, 298.15 K) | solubility (mole fraction) (in water, 303.15 K) | solubility (mole fraction) (in water, 310.15 K) | solubility (mole fraction) (in water, 315.15 K)
N#Cc1ccc(NS(=O)(=O)c2ccc(N)cc2)cc1 | 0.00112 | 0.00129 | 0.00158 | 0.00197 | 0.00234 | 4.11e-06 | 5.47e-06 | 7.58e-06 | 1.16e-05 | 1.45e-05
Nc1ccc(S(=O)(=O)Nc2ccc([N+](=O)[O-])cc2)cc1 | 0.0026 | 0.003 | 0.00361 | 0.00465 | 0.00562 | 2.72e-06 | 3.64e-06 | 4.88e-06 | 7.63e-06 | 8.29e-06
O=[N+]([O-])c1ccc(NS(=O)(=O)c2ccccc2)cc1 | 0.00958 | 0.0116 | 0.0139 | 0.018 | 0.0222 | 1.45e-06 | 1.85e-06 | 2.32e-06 | 3.19e-06 | 3.71e-06
